Data set [1] can be described thus: Detection of glutathione conjugates (GSH). It is filed as in vitro ADME, human. The arrangement: key: NF = in vitro no adduct formation relative to control. As to conditions: in vitro, relative to control. An excerpt: Detection of Glutathione Conjugates (GSH) The assay conditions for the detection of glutathione conjugates follow the procedure described by C. M. Dieckhaus et al. in Chem. Res. Toxicol. 2005, 18, 630-63.

The next data set deals with Aβ40 in brain. Briefly: In vivo inhibition of Aβ40 in brain of wild-type mice. As to conditions: Mus musculus, po; 10 mg/kg p.o., brain Aβ40 after 4 h, female C57Bl/6J mice; read-out: in vivo effect, Percentage of control @ 10 mg/kg p.o. As to the method:
In Vivo Experiments. […] The test compound was dissolved in 5% EtOH, 10% Solutol and was applied per os at 10 ml/kg. After 4 h the animals were sacrificed and brain and plasma were collected. The brain was cut into halves and immediately frozen on dry ice. Brain was used for measurement of Aβ40 and plasma was used for determination of compound exposure. […] Brain tissue was homogenized in 2% DEA buffer in a Roche […] (20'', 4000 rpm) and subsequently centrifuged for 1 h at 100'000 g. DEA was reduced to 0.2% in 50 mM NaCl and one half of the DEA lysate was passed over an Oasis Solid Phase extraction plate (Waters; Cat.Nr. 186000679) which had been activated with MeOH and equilibrated in dH2O (1 ml each). After washes in 10% and 30% MeOH (1 ml each) the AP-peptides were eluted in 0.8 ml 2% NH4OH in 90% MeOH. […] Aβ40 was determined by an AlphaLISA assay (Perkin Elmer). In a white 96well half-area microplate (Perkin Elmer Cat.Nr. 6005561), 20 μl of the reconstituted sample were mixed with 5 μl biotinylated BAP-24 (specific for C-terminus of Aβ40 (Brockhaus, M.; Grunberg, J.; Rohrig, S.; Loetscher, H.; Wittenburg, N.; Baumeister, R.; Jacobsen, […]. Caspase-mediated cleavage is not required for the activity of presenilins in amyloidogenesis and NOTCH signaling. […] The mix was incubated for 1 h at RT in the dark. Then 20 μl Streptavin-coated Donor Beads (Perkin Elmer Cat. Nr. 6760002, final dilution 1:125) were added and this final mix was incubated in the dark for another 30 min at r.t. before RFU was measured in an AlphaScreen Reader(Perkin Elmer Envision 2104).

The next data set concerns the target T1, CYP2C9 (Homo sapiens, UniProt P11712).
T1 construct: 0.2 mg/ml pooled human liver microsomes; from tissue; host or cells: pooled human liver microsomes
The data set can be described thus: CYP inhibition assay, CYP2C9. It is filed as in vitro ADME. As to conditions: pooled human liver microsomes, diclofenac substrate; read-out: CYP IC50 2C9. As to the method:
(§1) Inhibition of cytochromes P450 (CYPs) 2C9, 2D6 and 3A4 was assessed using human liver microsomes and CYP-selective substrate metabolism reactions. […] Quenched incubates were stored at −20° C. for at least 1 hour before centrifugation (20,000×g, 20 minutes). Supernatants were removed and diluted 1:1 with water prior to analysis using a RapidFire sample injector system and API4000 mass spectrometer. Peak areas for substrate, metabolite and stable-labelled metabolite standard were determined using MS/MS. The peak area ratios between the metabolite generated by the enzymatic reaction and the internal standard were used in subsequent calculations. The percentage of (DMSO) control activity was calculated for each incubate and IC50 values estimated by non-linear regression. Sulfaphenazole, quinidine or ketoconazole were tested in each CYP2C9, CYP2D6 or CYP3A4 inhibition experiment, respectively, to ensure assay sensitivity and reproducibility.

A further data set has as its target T2, CYP2D6 (Homo sapiens, UniProt P10635).
T2 construct: 0.2 mg/ml pooled human liver microsomes; from tissue; host or cells: pooled human liver microsomes
The data set can be described thus: CYP inhibition assay, CYP2D6. It is filed as in vitro ADME. The note with it: pooled human liver microsomes, dextromethorphan substrate; read-out: CYP IC50 2D6. As to the method:
as §1

The target of a further data set is hERG (Homo sapiens, UniProt Q12809). Briefly: hERG current measurement (automated patch clamp). It is filed as cell-based. As to the method: The hERG current measurement was performed at an automated patch clamp system following the procedure described in R. E. Martin et al. in Bio org.
Sequence of hERG (Q12809 whole entry): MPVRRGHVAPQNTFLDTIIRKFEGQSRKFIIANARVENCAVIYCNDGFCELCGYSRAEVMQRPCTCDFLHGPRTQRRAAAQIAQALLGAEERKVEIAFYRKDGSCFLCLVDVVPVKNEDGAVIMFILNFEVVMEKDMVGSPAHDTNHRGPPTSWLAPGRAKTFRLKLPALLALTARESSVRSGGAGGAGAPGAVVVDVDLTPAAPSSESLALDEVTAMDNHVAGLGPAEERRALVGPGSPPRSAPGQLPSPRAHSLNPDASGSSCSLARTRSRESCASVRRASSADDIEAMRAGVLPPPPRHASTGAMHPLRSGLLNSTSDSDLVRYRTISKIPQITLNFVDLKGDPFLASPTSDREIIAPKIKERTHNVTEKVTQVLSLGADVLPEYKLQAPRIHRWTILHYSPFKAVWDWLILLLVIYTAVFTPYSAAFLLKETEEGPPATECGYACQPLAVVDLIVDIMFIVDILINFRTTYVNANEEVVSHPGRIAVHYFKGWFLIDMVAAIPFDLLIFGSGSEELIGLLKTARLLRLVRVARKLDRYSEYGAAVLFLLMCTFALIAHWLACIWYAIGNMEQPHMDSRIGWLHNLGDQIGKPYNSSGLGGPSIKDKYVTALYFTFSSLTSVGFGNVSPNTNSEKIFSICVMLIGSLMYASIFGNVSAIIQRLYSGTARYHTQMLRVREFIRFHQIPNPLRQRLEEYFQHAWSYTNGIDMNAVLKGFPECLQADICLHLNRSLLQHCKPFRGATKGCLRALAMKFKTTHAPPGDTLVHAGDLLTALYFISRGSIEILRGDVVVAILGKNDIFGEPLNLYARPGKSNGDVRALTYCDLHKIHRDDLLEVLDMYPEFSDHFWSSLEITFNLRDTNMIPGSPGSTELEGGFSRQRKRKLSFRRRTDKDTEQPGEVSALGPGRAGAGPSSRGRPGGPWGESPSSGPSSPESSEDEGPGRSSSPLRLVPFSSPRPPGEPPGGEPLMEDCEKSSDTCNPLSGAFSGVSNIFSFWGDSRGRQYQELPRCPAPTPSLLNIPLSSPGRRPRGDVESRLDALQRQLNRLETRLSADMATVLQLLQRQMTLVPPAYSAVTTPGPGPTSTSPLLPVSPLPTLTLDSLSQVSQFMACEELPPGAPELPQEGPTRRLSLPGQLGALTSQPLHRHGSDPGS
Data set [2] addresses T3, cathepsin D (from human liver) (Homo sapiens, UniProt P07339).
T3 construct: cathepsin D (from human liver, Calbiochem) diluted in assay buffer; purchased Calbiochem; host or cells: human liver
Briefly: Cathepsin D fluorescent substrate kinetic assay. It is filed as biochemical. As to conditions: pH 5.5. An excerpt: (§2) Cathepsin D and Cathepsin E Fluorescent Substrate Kinetic Assays
(§3) The MR121 fluorescence assays described below are based on the fact that MR121 forms a non-fluorescent ground state complex with tryptophan. In solution this formation occurs at millimolar concentrations of tryptophan. The mechanism can be used to design a generic biochemical assay for proteases. […] In absence of protease activity, the substrates remain intact and the MR121 fluorescence is reduced by the high local Trp-concentration. If the substrates are cleaved by the enzymes the MR121 fluorescence is recovered.
(§4) The fluorescent substrate cathepsin D and cathepsin E kinetic assays were performed at room temperature in 384-well microtiter plates (black with clear flat bottom, non binding surface plates from Corning) in a final volume of 51 μl. The test compounds were serially diluted in DMSO (15 concentrations, 1/3 dilution steps) and 1 μl of diluted compounds were mixed for 10 min with 40 μl of cathepsin D (from human liver, Calbiochem) diluted in assay buffer (100 mM sodium acetate, 0.05% BSA, pH 5.5; final concentration: 200 nM) or with 40 μl of recombinant human cathepsin E (R&D Systems) diluted in assay buffer (100 mM sodium acetate, 0.05% BSA, pH 4.5; final concentration: 0.01 nM). […] The slope in the linear range of the kinetic was calculated and the IC50 of the test compounds were determined using a four parameter equation for curve fitting.

Another data set concerns the target T4, CYP3A4 (Homo sapiens, UniProt P08684).
T4 construct: 0.2 mg/ml pooled human liver microsomes; from tissue; host or cells: pooled human liver microsomes
The data set can be described thus: CYP inhibition assay, CYP3A4. It is filed as in vitro ADME. As to conditions: pooled human liver microsomes, midazolam substrate; read-out: CYP IC50 3A4. As to the method: as §1

For data set [3], the target named is T5, recombinant human cathepsin E (Homo sapiens, UniProt P14091).
T5 construct: purchased R&D Systems
T5 sequence (P14091 54-396): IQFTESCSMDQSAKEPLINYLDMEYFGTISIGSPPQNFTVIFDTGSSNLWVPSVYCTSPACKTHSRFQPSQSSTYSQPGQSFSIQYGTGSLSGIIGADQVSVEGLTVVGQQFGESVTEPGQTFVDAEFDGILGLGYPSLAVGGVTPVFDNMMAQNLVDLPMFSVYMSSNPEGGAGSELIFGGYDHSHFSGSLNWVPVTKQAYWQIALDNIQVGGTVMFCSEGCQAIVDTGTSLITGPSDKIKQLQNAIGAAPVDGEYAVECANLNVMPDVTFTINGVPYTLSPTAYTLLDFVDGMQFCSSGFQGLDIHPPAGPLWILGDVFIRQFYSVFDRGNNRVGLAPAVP
Briefly: Cathepsin E fluorescent substrate kinetic assay. It is filed as biochemical. The note with it: pH 4.5.
Text: as §2, §3, §4

T1 sequence (P11712 whole entry): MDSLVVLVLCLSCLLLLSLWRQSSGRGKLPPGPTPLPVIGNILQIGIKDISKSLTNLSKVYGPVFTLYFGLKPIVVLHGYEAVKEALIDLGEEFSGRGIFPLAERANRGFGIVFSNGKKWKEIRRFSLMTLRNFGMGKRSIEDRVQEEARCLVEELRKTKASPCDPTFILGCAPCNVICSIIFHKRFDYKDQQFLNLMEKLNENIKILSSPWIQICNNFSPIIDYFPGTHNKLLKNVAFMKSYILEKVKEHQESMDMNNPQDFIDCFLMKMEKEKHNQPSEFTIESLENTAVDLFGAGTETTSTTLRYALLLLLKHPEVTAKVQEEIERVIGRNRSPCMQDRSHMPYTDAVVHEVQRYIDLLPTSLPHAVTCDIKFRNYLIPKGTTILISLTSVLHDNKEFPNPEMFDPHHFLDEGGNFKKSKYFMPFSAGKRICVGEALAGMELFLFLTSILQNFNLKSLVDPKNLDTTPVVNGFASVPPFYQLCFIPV
T4 sequence (P08684 whole entry): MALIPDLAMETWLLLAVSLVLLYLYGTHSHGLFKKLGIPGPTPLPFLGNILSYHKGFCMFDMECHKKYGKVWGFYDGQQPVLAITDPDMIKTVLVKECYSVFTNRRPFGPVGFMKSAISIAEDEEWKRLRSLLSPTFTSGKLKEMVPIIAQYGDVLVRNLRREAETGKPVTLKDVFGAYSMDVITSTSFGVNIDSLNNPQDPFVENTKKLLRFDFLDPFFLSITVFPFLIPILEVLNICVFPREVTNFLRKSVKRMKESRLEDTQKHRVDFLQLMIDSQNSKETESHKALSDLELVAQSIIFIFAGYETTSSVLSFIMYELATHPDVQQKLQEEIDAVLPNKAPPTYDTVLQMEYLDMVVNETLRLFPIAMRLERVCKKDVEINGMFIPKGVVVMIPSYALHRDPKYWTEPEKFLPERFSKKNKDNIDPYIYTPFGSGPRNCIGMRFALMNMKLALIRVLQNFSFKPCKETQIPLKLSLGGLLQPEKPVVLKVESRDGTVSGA
T3 sequence (P07339 65-412): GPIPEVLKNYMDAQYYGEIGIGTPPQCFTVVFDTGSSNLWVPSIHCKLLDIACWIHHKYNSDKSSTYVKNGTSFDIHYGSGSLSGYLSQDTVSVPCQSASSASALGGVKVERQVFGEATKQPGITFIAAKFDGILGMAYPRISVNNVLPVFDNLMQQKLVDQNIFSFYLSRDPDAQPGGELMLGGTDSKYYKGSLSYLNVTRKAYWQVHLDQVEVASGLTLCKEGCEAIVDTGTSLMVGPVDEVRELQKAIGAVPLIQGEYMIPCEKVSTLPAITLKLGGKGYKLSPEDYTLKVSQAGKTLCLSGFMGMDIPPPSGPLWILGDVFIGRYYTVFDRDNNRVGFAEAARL
T2 sequence (P10635 whole entry): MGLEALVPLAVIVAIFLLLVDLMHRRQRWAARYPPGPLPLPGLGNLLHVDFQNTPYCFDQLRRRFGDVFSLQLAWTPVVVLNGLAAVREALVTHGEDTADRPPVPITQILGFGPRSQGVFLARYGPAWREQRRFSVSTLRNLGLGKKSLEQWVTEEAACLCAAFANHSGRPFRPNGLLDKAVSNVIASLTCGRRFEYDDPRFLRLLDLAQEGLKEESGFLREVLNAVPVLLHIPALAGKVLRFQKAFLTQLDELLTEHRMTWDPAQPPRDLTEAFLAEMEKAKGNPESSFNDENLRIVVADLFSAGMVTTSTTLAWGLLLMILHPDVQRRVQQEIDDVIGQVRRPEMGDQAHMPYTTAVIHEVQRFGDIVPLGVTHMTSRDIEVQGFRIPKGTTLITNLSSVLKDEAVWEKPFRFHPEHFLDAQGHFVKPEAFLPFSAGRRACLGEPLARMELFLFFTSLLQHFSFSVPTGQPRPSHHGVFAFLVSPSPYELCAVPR

Consider `NC1=N[C@](CF)(c2cc(NC(=O)c3nn(C(F)F)cc3Cl)ccc2F)C[C@@H](C(F)(F)F)O1` [Example 46, N-(3-((4S,6S)-2-Amino-4-(fluoromethyl)-6-(trifluoromethyl)-5,6-dihydro-4H-1,3-oxazin-4-yl)-4-fluorophenyl)-4-chloro-1-(difluoromethyl)-1H-pyrazole-3-carboxamide], for which the “GSH human (glutathione adduct formation)” value in data set [1] is listed as “NF”. Moreover, in the data set with Aβ40 in brain, the response vs control in vivo at 10 mg/kg is 61%. The IC50 is more than 50 µM at CYP2C9; 24 µM at CYP2D6; more than 200 µM in data set [2]; more than 50 µM at CYP3A4; more than 200 µM in data set [3]. Further, at hERG, the “hERG Inhibition @ 10 μM” value was 8.

Values taken from patent publication US9067926B2, “Fluoromethyl-5,6-dihydro-4H-[1,3]OXAZINES” (F. Hoffmann-La Roche AG, priority 2012, dated 2015).
